# From patent publication US7138361B2, “Herbicidal heterocycles” (E. I. du Pont de Nemours and Company, priority 2000, dated 2006)
# How the values were obtained:
# Format in all cases: in vivo
# [1] = test system: Sphenoclea zeylanica (Sz); assay: Test D greenhouse paddy-water test in rice; conditions: 21 days, 0-100 scale
# Excerpt: (§1) Four plastic pots (ca. 16-cm diameter) per rate were partially filled with sterilized Tama silt loam soil comprised of a 35:50:15 ratio of sand, silt and clay and 2.6% organic matter. Separate plantings for each of the four pots were as follows. Seeds from the U.S. of Heteranthera limosa (Hl), Monochoria vaginalis (Mv), Ammania auriculata (Aa), and Sphenoclea zeylanica (Sz) were planted into one 16-cm pot for each rate. Seeds from the U.S. of Cyperus iria (Ci), Leptochloa fascicularis (Li), one stand of 9 or 10 direct-seeded rice seedlings (Oryza saliva cv. ‘Japonica—M202’; Oss), and one stand of 6 transplanted rice seedlings (Oryza sativa cv. ‘Japonica—M202’; Ost) were planted into one 16-cm pot for each rate. Seeds from the U.S. of Cyperus difformis (Cd), Alisma plantago-aquatica (Ap), and Scirpus mucronatus (Sm) were planted into one 16-cm pot for each rate. Seeds from the U.S. of Echinochloa crus-galli (Ecg), Echinochloa oryzicola (Eor), Echinochloa oryzoides (Eoz) and Echinochloa colonum (Ecc) were planted into one 16-cm pot for each rate. Plantings were sequential so that crop and weed species were at the 2.0 to 2.5-leaf stage at time of treatment.
# (§2) Potted plants were grown in a greenhouse with day/night temperature settings of 29.5/26.7° C., and supplemental balanced lighting was provided to maintain a 16-hour photoperiod. Test pots were maintained in the greenhouse until test completion.
# (§3) Chemical treatments consisting of Compound 1 of Index Table A (Cmpd 1), daimuron (Cmpd D), quinoclamine (Cmpd Q) and combinations thereof were formulated in acetone. At time of treatment, test pots were flooded to 3 cm above the soil surface, treated by application of test compounds directly to the paddy water, and then maintained at that water depth for the duration of the test. Effects of treatments on rice and weeds were visually evaluated by comparison to untreated controls after 21 days. Plant response ratings are reported on a 0 to 100 scale; where 0 is no effect and 100 is complete control. ND means no data.
# (§4) Colby's equation was used to calculate the expected additive herbicidal effect of the mixtures of Compound 1 with daimuron (Cmpd D) and quinoclamine (Cmpd Q). Colby's equation (Colby, S. R “Calculating Synergistic and Antagonistic Responses of Herbicide Combinations,” Weeds, 15(1), pp 20–22 (1967)) calculates the expected additive effect of herbicidal mixtures, and for two active ingredients is of the form: Pa+b=Pa+Pb−(PaPb/100) wherein Pa+b is the percentage effect of the mixture expected from additive contribution of the individual components, • Pa is the observed percentage effect of the first active ingredient at the same use rate as in the mixture, and • Pb is the observed percentage effect of the second active ingredient at the same use rate as in the mixture.
# [2] = test system: Echinochloa oryzicola (Eor); assay: Test D greenhouse paddy-water test in rice; conditions: 21 days, 0-100 scale
# Excerpt: as §1, §2, §3, §4
# Cyperus difformis (Cd) = assay: Test D greenhouse paddy-water test in rice; conditions: 21 days, 0-100 scale
# Excerpt: as §1, §2, §3, §4
# [3] = test system: Monochoria vaginalis (Mv); assay: Test D greenhouse paddy-water test in rice; conditions: 21 days, 0-100 scale
# Excerpt: as §1, §2, §3, §4
# [4] = test system: Leptochloa fascicularis (Li); assay: Test D greenhouse paddy-water test in rice; conditions: 21 days, 0-100 scale
# Excerpt: as §1, §2, §3, §4
# Heteranthera limosa (Hl) = assay: Test D greenhouse paddy-water test in rice; conditions: 21 days, 0-100 scale
# Excerpt: as §1, §2, §3, §4
# [5] = test system: Italian ryegrass (Lolium multiflorum); assay: Test C postemergence
# Procedure, shortened: (§5)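 Plants held in greenhouse for 12–14 days post-application are scored by eye against controls on a 0–100 control scale. Application timing: preemergence on sown seed, or postemergence on 2–18 cm plants.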
# wild oat (Avena fatua) = assay: Test C postemergence
# Procedure, shortened: as §5
# [6] = test system: windgrass (Apera spica-venti); assay: Test C postemergence
# Procedure, shortened: as §5
# [7] = test system: wheat (Triticum aestivum); assay: Test C postemergence
# Procedure, shortened: as §5
# [8] = test system: canary grass (Phalaris minor); assay: Test C postemergence
# Procedure, shortened: as §5
# [9] = test system: downy brome (Bromus tectorum); assay: Test C postemergence
# Procedure, shortened: as §5
# [10] = Rate 125 g/ha, scale 0 to 100, 0 no effect, 100 complete control
# [11] = Rate 250 g/ha, scale 0 to 100 (0 no effect, 100 complete control)
# [12] = Rate 500 g/ha, scale 0 to 100 (0 no effect, 100 complete control)
structure (smiles),measurement,setting,value
CC(C)(C)c1ccn(C2SCN(c3cccc(C(F)(F)F)c3)C2=O)n1 (centres unmarked) [Compound 1],Obs. (observed effect) Sz,[1]; 32 g/ha alone,100
same,Obs. (observed effect) Sz,[1]; 64 g/ha alone,100
same,Obs. (observed effect) Sz,[1]; 125 g/ha alone,100
same,Obs. (observed effect) Sz,[1]; 250 g/ha alone,100
same,Obs. (observed effect) Sz,[1]; 500 g/ha alone,100
same,Obs. (observed effect) Eor,[2]; 32 g/ha alone,0
same,Obs. (observed effect) Eor,[2]; 64 g/ha alone,30
same,Obs. (observed effect) Eor,[2]; 125 g/ha alone,40
same,Obs. (observed effect) Eor,[2]; 250 g/ha alone,100
same,Obs. (observed effect) Eor,[2]; 500 g/ha alone,100
same,Obs. (observed effect) Cd,Cyperus difformis (Cd); 32 g/ha alone,100
same,Obs. (observed effect) Cd,Cyperus difformis (Cd); 64 g/ha alone,100
same,Obs. (observed effect) Cd,Cyperus difformis (Cd); 125 g/ha alone,100
same,Obs. (observed effect) Cd,Cyperus difformis (Cd); 250 g/ha alone,100
same,Obs. (observed effect) Cd,Cyperus difformis (Cd); 500 g/ha alone,100
same,Obs. (observed effect) Mv,[3]; 32 g/ha alone,100
same,Obs. (observed effect) Mv,[3]; 64 g/ha alone,100
same,Obs. (observed effect) Mv,[3]; 125 g/ha alone,100
same,Obs. (observed effect) Mv,[3]; 250 g/ha alone,100
same,Obs. (observed effect) Mv,[3]; 500 g/ha alone,100
same,Obs. (observed effect) Lf,[4]; 32 g/ha alone,90
same,Obs. (observed effect) Lf,[4]; 64 g/ha alone,100
same,Obs. (observed effect) Lf,[4]; 125 g/ha alone,100
same,Obs. (observed effect) Lf,[4]; 250 g/ha alone,100
same,Obs. (observed effect) Lf,[4]; 500 g/ha alone,100
same,Obs. (observed effect) Hl,Heteranthera limosa (Hl); 64 g/ha alone,40
same,Obs. (observed effect) Hl,Heteranthera limosa (Hl); 125 g/ha alone,90
same,Obs. (observed effect) Hl,Heteranthera limosa (Hl); 250 g/ha alone,100
same,Obs. (observed effect) Hl,Heteranthera limosa (Hl); 500 g/ha alone,100
CC1(c2ccn(C3OCN(c4cccc(OC(F)(F)F)c4)C3=O)n2)CC1 (centres unmarked) [Compound 69],"Plant response rating, Ryegrass","[5]; Rate 62 g/ha, scale 0 to 100",0
same,"Plant response rating, Ryegrass",[5]; [10],0
same,"Plant response rating, Ryegrass",[5]; [11],0
same,"Plant response rating, Ryegrass",[5]; [12],30
same,"Plant response rating, Wild Oat","wild oat (Avena fatua); Rate 62 g/ha, scale 0 to 100",0
same,"Plant response rating, Wild Oat",wild oat (Avena fatua); [10],0
same,"Plant response rating, Wild Oat",wild oat (Avena fatua); [11],0
same,"Plant response rating, Wild Oat",wild oat (Avena fatua); [12],20
same,"Plant response rating, Windgrass","[6]; Rate 62 g/ha, scale 0 to 100",0
same,"Plant response rating, Windgrass",[6]; [10],0
same,"Plant response rating, Windgrass",[6]; [11],0
same,"Plant response rating, Windgrass",[6]; [12],20
same,"Plant response rating, Wheat","[7]; Rate 62 g/ha, scale 0 to 100",0
same,"Plant response rating, Wheat",[7]; [10],0
same,"Plant response rating, Wheat",[7]; [11],0
same,"Plant response rating, Wheat",[7]; [12],0
same,"Plant response rating, Canarygrass","[8]; Rate 62 g/ha, scale 0 to 100",0
same,"Plant response rating, Canarygrass",[8]; [10],0
same,"Plant response rating, Canarygrass",[8]; [11],0
same,"Plant response rating, Canarygrass",[8]; [12],0
same,"Plant response rating, Downy Brome","[9]; Rate 62 g/ha, scale 0 to 100",0
same,"Plant response rating, Downy Brome",[9]; [10],0
same,"Plant response rating, Downy Brome",[9]; [11],0
same,"Plant response rating, Downy Brome",[9]; [12],0
